Data reported in US5276120A, “Process for forming omega-deuxy-azasugars” (The Scripps Research Institute, priority 1992, dated 1994).
Read-outs that look alike come from different tables or passages of the source.

Experiments:
[1] = molecular target: T1, α-Glucosidase (BY) (Saccharomyces cerevisiae, UniProt P07265); experiment: Glycosidase inhibition, α-glucosidase from brewers yeast; format: biochemical
T1 construct: purchased Sigma
Source text: (§1) Materials: All of the buffers, enzymes, and substrates were purchased from Sigma and used as received. These included piperazine-N,N'-bis(2-ethanesulfonic acid) (PIPES), sodium acetate (NaOAc), ethylenediaminetetraacetic acid (EDTA), β-D-glucosidase (from sweet almond), p-nitrophenyl β-D-glucoside, α-D-glucosidase, p-nitrophenyl α-D-glucoside, β-N-acetyl-D-glucosaminedase, p-nitrophenyl β-N-acetyl-D-glucosaminide, α-D-mannosidase, and p-nitrophenyl α-D-mannoside.
b) PIPES-NaOAc buffer (0.01M PIPES, 0.2M NaOAc and 0.01 mM EDTA, pH 6.5). This buffer was prepared according to the literature procedure [Dale et al., Biochemistry 1985, 24, 3530].
d) α-D-Glucosidase: 1.5 mg of solid protein (70 units/mg) were dissolved in 1 mL PIPES-NaOAc buffer solution and used for assays without further dilution.
g) Substrate solutions: all substrates were dissolved in the corresponding buffer solution for enzymatic assay.
(§2) For each inhibitor, five inhibitor concentrations, ranging from zero to three times Ki, were generally used to determine the Ki value. […] The amount of enzyme added in each assay was adjusted so that less than 10 percent of the substrate, with its lowest substrate concentration, would be consumed within 45 seconds. Since all of the substrates have p-nitrophenol as leaving group, the assays were monitored at 400 nanometers (nm), where the molecular extinction coefficient, ε, was calibrated to be 3204.5M^-1 cm^-1 at pH 6.5. The following illustrates the detailed procedure.
To a 1 mL disposable cuvette were added […] (μL) of the NaOAc-PIPES buffer solution, 20 μL of the inhibitor solution and 20 μL of the p-nitrophenyl β-D-glucoside solution (100 Mm in PIPES-NaoAc buffer, PH 6.5). The solution was well mixed and 20 μL of the β-D-glucosidase solution were injected into the cuvette to start the reaction. The reaction was monitored at 400 nm on a Beckman DU-70 photospectrometer for 45 seconds and the initial hydrolysis rate was calculated. The same procedure was repeated with five other substrate concentrations. After all the initial rates were accumulated, the corresponding Lineweaver-Burk plot at that inhibitor concentration was constructed.
PIPES-NaOAc buffer was used for all the enzymes except β-N-acetyl-D-glucosaminedase, for which PIPES buffer was used.

[2] = system: β-Glucosidase (SA); experiment: Glycosidase inhibition, β-glucosidase from sweet almond; format: biochemical; conditions: kinetic analysis
Source text: as §1
b) PIPES-NaOAc buffer (0.01M PIPES, 0.2M NaOAc and 0.01 mM EDTA, pH 6.5). This buffer was prepared according to the literature procedure [Dale et al., Biochemistry 1985, 24, 3530]. […]
For each inhibitor, five inhibitor concentrations, ranging from zero to three times Ki, were generally used to determine the Ki value. […] Since all of the substrates have p-nitrophenol as leaving group, the assays were monitored at 400 nanometers (nm), where the molecular extinction coefficient, ε, was calibrated to be 3204.5M^-1 cm^-1 at pH 6.5. […]
To a 1 mL disposable cuvette were added 950 microliters (μL) of the NaOAc-PIPES buffer solution, 20 μL of the inhibitor solution and 20 μL of the p-nitrophenyl β-D-glucoside solution (100 Mm in PIPES-NaoAc buffer, PH 6.5). […] The reaction was monitored at 400 nm on a Beckman DU-70 photospectrometer for 45 seconds and the initial hydrolysis rate was calculated. […]

[3] = molecular target: α-L-Fucosidase; experiment: α-L-Fucosidase inhibition, hydrolysis of p-nitrophenyl-α-L-fucoside; format: biochemical; conditions: for Type of fucosidase inhibition: versus fuc-pNP
Experimental: α-L-Fucosidase activity was measured by incubating the enzyme (0.005 Units) with fuc-pNP ([…]) in 0.4 ml of 50 mM acetate buffer, pH 5.5 for 20 minutes at 25° C. in the absence and presence of the azasugars of the present invention. The reaction was stopped by the addition of 0.8 ml of 2 Mm glycine buffer, pH 10.5. The amount of formed p-nitrophenol was determined by optical density spectroscopy at a wavelength of 400 nm.

[4] = system: AIDS virus gp160 envelope protein precursor; conditions: Walker et al., Proc. Natl. Acad. Sci. 1987, 84, 8120; cited from earlier work
[5] = molecular target: T2, α-Glucosidase Type I (calf liver) (Bos taurus, UniProt A0A3Q1M9D9); experiment: Glycosidase inhibition, α-glucosidase Type I (calf liver); format: biochemical; conditions: footnote not given
T2 construct: host or cells: calf liver
T2 sequence (A0A3Q1M9D9 1-839): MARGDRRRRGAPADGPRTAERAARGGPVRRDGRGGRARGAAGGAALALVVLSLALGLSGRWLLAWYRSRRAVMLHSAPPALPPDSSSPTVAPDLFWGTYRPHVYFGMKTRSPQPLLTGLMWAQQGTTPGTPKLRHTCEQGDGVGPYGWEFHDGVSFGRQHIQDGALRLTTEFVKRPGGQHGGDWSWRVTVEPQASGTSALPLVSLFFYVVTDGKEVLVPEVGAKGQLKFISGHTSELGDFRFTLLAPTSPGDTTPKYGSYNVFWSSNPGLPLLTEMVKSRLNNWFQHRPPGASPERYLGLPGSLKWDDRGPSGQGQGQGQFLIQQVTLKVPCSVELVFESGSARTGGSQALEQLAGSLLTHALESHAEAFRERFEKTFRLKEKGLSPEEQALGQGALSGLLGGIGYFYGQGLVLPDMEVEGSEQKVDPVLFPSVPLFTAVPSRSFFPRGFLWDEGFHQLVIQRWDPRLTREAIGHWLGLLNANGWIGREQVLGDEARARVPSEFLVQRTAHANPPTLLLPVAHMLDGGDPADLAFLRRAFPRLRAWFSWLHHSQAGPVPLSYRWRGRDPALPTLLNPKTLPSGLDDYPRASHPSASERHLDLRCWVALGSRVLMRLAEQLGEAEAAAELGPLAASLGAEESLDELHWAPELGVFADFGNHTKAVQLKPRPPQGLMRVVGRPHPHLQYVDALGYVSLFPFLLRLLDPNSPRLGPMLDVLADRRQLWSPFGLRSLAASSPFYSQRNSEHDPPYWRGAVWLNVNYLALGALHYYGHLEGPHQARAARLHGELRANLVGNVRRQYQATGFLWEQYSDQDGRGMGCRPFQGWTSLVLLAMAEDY

[6] = system: β-D-Galactosidase (jack bean); experiment: Glycosidase inhibition, β-D-galactosidase (jack bean); format: biochemical; conditions: 10 mM inhibitor in the assay
Source text: as §2

[7] = pH 6.5, p-nitrophenyl α-D-glucoside, Lineweaver-Burk, read-out: Ki (M), α-Glucosidase (BY)
[8] = fuc-pNP substrate, 50 mM acetate buffer, pH 5.5, 25° C., read-out: Ki (mM), α-L-Fucosidase Inhibition (Table 2)

T1 sequence (P07265 whole entry): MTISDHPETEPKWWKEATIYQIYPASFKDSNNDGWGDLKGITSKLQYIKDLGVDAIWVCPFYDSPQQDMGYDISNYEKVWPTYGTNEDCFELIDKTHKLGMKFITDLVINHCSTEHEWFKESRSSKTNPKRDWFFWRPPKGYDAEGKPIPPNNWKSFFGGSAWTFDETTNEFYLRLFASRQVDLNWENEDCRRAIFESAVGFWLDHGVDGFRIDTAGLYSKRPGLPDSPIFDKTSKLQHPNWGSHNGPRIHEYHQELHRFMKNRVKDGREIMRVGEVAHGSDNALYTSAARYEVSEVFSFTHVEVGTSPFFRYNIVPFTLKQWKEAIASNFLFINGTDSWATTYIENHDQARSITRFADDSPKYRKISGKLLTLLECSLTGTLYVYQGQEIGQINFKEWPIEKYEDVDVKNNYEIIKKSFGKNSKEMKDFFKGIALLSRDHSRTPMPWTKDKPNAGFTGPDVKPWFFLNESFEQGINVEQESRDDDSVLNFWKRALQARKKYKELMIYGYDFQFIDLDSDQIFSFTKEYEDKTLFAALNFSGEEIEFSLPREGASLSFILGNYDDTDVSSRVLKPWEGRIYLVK

Q: Which Ki [1, 7] does the source give for `CC1C(O)C(O)C(O)C[N+]1(C)[O-]` [Compound 18, N-Methyl-1,5,6-trideoxy-1,5-imino-D-glucitol oxide] here?
A: 0.00695 M

Q: What about the “Potency relative to Compound 17, β-glucosidase from sweet almond” value [2] of the same molecule?
A: less potent inhibitor than Compound 17

Q: With `C[C@@H]1OC(O)[C@@H](O)[C@H](O)[C@@H]1O` (stereo partly drawn) [L-Fucose] as the molecule, how does the Ki ([3]; competitive inhibitor versus fuc-pNP, read-out: Ki versus fuc-pNP) read?
A: 0.3 ± 0.01 mM

Q: What about the Ki [3, 8] of the same molecule?
A: 0.3 ± 0.1 mM

Q: And the “Type of fucosidase inhibition” value [3]?
A: competitive inhibitor

Q: With `OC1CN2CCC(O)C2C(O)C1O` (stereo not shown) [castanospermine, 1,6,7,8-tetrahydroxyoctahydroindolizine] as the molecule, how does the “Effect on processing of AIDS virus gp160 envelope protein precursor” value [4] read?
A: inhibit the processing of the AIDS virus gp160 envelope protein precursor

Q: What does the source list for `CN1CC(O)C(O)C(O)C1CO` (stereo not shown) [Compound 19, N-methyl 1-deoxynojirimycin]?
A: Ki [1]: 0.000369 M; Ki [5]: 0.07 µM

Q: Which results are given for `Oc1ccccc1` [phenol]?
A: Ki ([3]; noncompetitive inhibitor, analog of p-nitrophenol, read-out: Kis): 0.18 ± 0.02 mM; Type of fucosidase inhibition [3]: noncompetitive inhibitor

Q: With `C[C@H]1NC[C@H](O)[C@@H](O)[C@@H]1O` [Compound 3c, 1,5,6-Trideoxy-1,5-imino-D-glucitol] as the molecule, how does the Ki [1] read?
A: 0.00156 M

Q: Which Ki [1, 7] does the source give for `C[C@@H]1[C@@H](O)[C@H](O)[C@@H](O)CN1C` [Compound 17, N-Methyl-1,5,6-trideoxy-1,5-imino-D-glucitol] here?
A: 0.00178 M

Q: Which Ki [3, 8] does the source give for `OC[C@H]1NC[C@@H](O)[C@@H](O)[C@@H]1O` [D-1-deoxymannojirimycin, 1,5-dideoxy-1,5-imino-D-mannitol] here?
A: 0.03 ± 0.01 mM

Q: Which Ki [1] does the source give for `OCC1NCC(O)C(O)C1O` (stereo not shown) [Compound 23, 1-deoxynojirimycin] here?
A: 8.67e-06 M

Q: What about the “Inhibition of β-D-Galactosidase (jack bean)” value [6] of the same molecule?
A: No inhibition

Q: With `OCC1NCC(O)C(O)C1O` [Compound 124, D-1-deoxytalonojirimycin] as the molecule, how does the Ki [3, 8] read?
A: 0.05 ± 0.006 mM
